Reference: patent US20260297070A1, “CYCLIC [COMPOUND LEFT OUT] WRN INHIBITORS” (Nimbus Wadjet, Inc., priority 2023, published 2026)

Each compound was assayed against T1, human Werner helicase (WRN-BV08, Uniprot Q14191, amino acids 517-1235 with L1074F point mutation) (Homo sapiens, UniProt Q14191, L1074F) (assay: WRN (BV08) ADP-Glo Assay). Conditions: 0.15 nM WRN, 5 μM ATP, 0.1 nM DNA duplex, 15 min preincubation, 60 min at 25° C., pH 7.5, 1% DMSO; read-out: ADP-Glo_hWRN_IC50.
T1 construct: Uniprot Q14191, amino acids 517-1235 with L1074F point mutation; TEV-cleavable 8×His (C, cleaved yes); made in house; host or cells: Sf9 insect cells (baculovirus)
T1 sequence (Q14191 with tags, fused parts or gaps L1074F limits assumed): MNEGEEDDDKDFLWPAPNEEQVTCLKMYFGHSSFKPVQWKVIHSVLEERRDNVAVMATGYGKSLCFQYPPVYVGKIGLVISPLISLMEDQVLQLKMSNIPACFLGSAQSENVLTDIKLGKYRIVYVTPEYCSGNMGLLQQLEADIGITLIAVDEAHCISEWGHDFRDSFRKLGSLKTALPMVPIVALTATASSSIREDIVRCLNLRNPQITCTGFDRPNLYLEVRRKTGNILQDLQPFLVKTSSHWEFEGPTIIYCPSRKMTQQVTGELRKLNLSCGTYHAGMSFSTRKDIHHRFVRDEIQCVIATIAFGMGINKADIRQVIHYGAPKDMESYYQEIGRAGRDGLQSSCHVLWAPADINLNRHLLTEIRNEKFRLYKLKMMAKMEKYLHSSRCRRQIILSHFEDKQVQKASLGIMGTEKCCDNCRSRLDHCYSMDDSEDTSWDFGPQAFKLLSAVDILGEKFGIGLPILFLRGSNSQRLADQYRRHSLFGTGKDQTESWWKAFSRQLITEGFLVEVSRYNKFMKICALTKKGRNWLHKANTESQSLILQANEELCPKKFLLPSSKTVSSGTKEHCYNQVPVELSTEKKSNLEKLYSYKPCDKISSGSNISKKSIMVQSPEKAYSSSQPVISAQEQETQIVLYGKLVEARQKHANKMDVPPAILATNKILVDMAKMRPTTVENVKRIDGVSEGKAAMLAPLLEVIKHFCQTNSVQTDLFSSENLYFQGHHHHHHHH
Assay type: biochemical
How it was run: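 WRN 0.15 nM + cpd, 15 min 25 °C; add 5 μM ATP / 0.1 nM annealed DNA duplex; 60 min 25 °C; ADP-Glo stop, RLU. Buffer 20 mM Bicine pH 7.5, 1 mM MgCl2, 10 mM KCl, 1 mM TCEP. IC50, 4-parameter fit.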

SMILES | IC50 [µM]
CC(C)(O)c1cc(CN(C(=O)Cc2ncc(-c3ccc(F)c(F)c3)cc2F)C2C=CS(=O)(=O)C2)ccn1 (centres unmarked) [I-82, 2-[5-(3,4-difluorophenyl)-3-fluoropyridin-2-yl]-N-(1,1-dioxo-2,3-dihydro-1lambda6-thiophen-3-yl)-N-{[2-(2-hydroxypropan-2-yl)pyridin-4-yl]methyl}acetamide] | < 0.5
Cc1cccn1-c1ccc(CC(=O)N(Cc2ccn(C)c(=O)c2)C2C=CS(=O)(=O)C2)c(F)c1 (centres unmarked) [I-173, N-(1,1-dioxo-2,3-dihydro-1lambda6-thiophen-3-yl)-2-[2-fluoro-4-(2-methyl-1H-pyrrol-1-yl)phenyl]-N-[(1-methyl-2-oxo-1,2-dihydropyridin-4-yl)methyl]acetamide] | 0.5 to 5
CN(C)C(=O)C(C(=O)N(Cc1ccnc(C(C)(C)O)c1)C1C=CS(=O)(=O)C1)c1ccc(-c2ccc(F)cc2)cc1F (single isomer, unassigned) [I-12, (2R**)-2-{3,4′-difluoro-[1,1′-biphenyl]-4-yl}-N-[(3R*)-1,1-dioxo-2,3-dihydro-1lambda6-thiophen-3-yl]-N-{[2-(2-hydroxypropan-2-yl)pyridin-4-yl]methyl}-N′,N′-dimethylpropanediamide] | < 0.5
O=C(Cc1ccc(-n2cccc2)cc1)N(Cc1cccc(Cl)c1)C1C=CS(=O)(=O)C1 (centres unmarked) [I-201, N-[(3-chlorophenyl)methyl]-N-(1,1-dioxo-2,3-dihydro-1lambda6-thiophen-3-yl)-2-[4-(1H-pyrrol-1-yl)phenyl]acetamide] | 0.5 to 5
O=C(Cn1ccc(-c2ccc(F)cc2)cc1=O)N(Cc1ccncc1)C1C=CS(=O)(=O)C1 (centres unmarked) [I-147, N-(1,1-dioxido-2,3-dihydrothiophen-3-yl)-2-(4-(4-fluorophenyl)-2-oxopyridin-1(2H)-yl)-N-(pyridin-4-ylmethyl)acetamide] | 0.5 to 5
O=C(C1Cc2ccc(-n3cccc3)cc2C1)N(Cc1ccncc1)C1C=CS(=O)(=O)C1 (centres unmarked) [I-422, N-(1,1-dioxo-2,3-dihydro-1lambda6-thiophen-3-yl)-N-[(pyridin-4-yl)methyl]-5-(1H-pyrrol-1-yl)-2,3-dihydro-1H-indene-2-carboxamide] | > 50
Cc1ccc(-c2ccc(C(C(=O)N(C)C)C(=O)N(Cc3ccncc3)C3C=CS(=O)(=O)C3)cc2)cc1 (centres unmarked) [I-277, N-(1,1-dioxo-2,3-dihydro-1lambda6-thiophen-3-yl)-N′,N′-dimethyl-2-{4′-methyl-[1,1′-biphenyl]-4-yl}-N-[(pyridin-4-yl)methyl]propanediamide] | 5 to 10

The next lines start with the values.

IC50 [µM] | SMILES
> 50 | O=C(Cc1cnn(-c2ccccc2)n1)N(Cc1ccncc1)C1C=CS(=O)(=O)C1 (centres unmarked) [I-406, N-(1,1-dioxo-2,3-dihydro-1lambda6-thiophen-3-yl)-2-(2-phenyl-2H-1,2,3-triazol-4-yl)-N-[(pyridin-4-yl)methyl]acetamide]
0.5 to 5 | COc1cc(CN(C(=O)C2Cc3cc(C(F)(F)F)ccc3O2)[C@@H]2C=CS(=O)(=O)C2)ccn1 (stereo partly drawn) [I-114, N-[(3R)-1,1-dioxo-2,3-dihydro-1lambda6-thiophen-3-yl]-N-[(2-methoxypyridin-4-yl)methyl]-5-(trifluoromethyl)-2,3-dihydro-1-benzofuran-2-carboxamide]
10 to 50 | COCC(C(=O)N(Cc1ccnc(OC)c1)C1C=CS(=O)(=O)C1)n1cc(-c2ccccc2)cn1 (centres unmarked) [I-357, N-(1,1-dioxo-2,3-dihydro-1lambda6-thiophen-3-yl)-3-methoxy-N-[(2-methoxypyridin-4-yl)methyl]-2-(4-phenyl-1H-pyrazol-1-yl)propanamide]
< 0.5 | COc1cc(CN(C(=O)C(C(=O)N(C)C)c2ccc(-c3ccc(F)cc3)cc2F)C2C=CS(=O)(=O)C2)ccn1 (centres unmarked) [I-46, 2-{3,4′-difluoro-[1,1′-biphenyl]-4-yl}-N-(1,1-dioxo-2,3-dihydro-1lambda6-thiophen-3-yl)-N-[(2-methoxypyridin-4-yl)methyl]-N′,N′-dimethylpropanediamide]
